Source: patent US20220326218A1, “COMPOSITION AND METHOD FOR INHIBITING BORC COMPLEX TO TREAT CANCERS WITH NF1 DEFICIENCY AND DYSREGULATED RAS SIGNALING” (THE TRUSTEES OF DARTMOUTH COLLEGE, priority 2019, published 2022)

Experiments:
erg6Δira2Δ yeast = test: Yeast dose response curves, erg6Δira2Δ strain; assay type: cell-based, Saccharomyces cerevisiae; settings: 30° C., 18 h, 100 μM to 0.039 μM, normalized to DMSO
Experimental: S. cerevisiae strains were plated at an OD600 of 0.05 in 96-well plates (Falcon) and treated with SC complete containing compound starting at 100 μM, followed by 2-fold serial dilutions to generate a 10-point range of concentrations normalized with DMSO; one row was treated with DMSO as a control. Yeast were incubated for 18 h. To process, the optical density was read using a Spectramax M2 (Molecular Devices) at a wavelength of 600 nm and normalized to DMSO. Each experiment was repeated 2-3 times with 4 technical replicates per experiment.
A high-throughput screen in Saccharomyces cerevisiae lacking a yeast homologue of NF1, IRA2 (ira2Δ) was developed and carried out to identify tool compounds that elicited synthetic lethality with NF1 loss (15). ira2Δ yeast have increased RAS-GTP, which results in increased MAPK and PKA signaling analogous to the pathways that are activated in NF1-deficient Schwann cells (17). […]
More than 5,100 structurally diverse compounds selected from and representative of a >340,000-compound library were screened. […] To determine whether Y102 was also effective in human tumor cells, the efficacy of Y102 was evaluated in two NF1-deficient human cancer cell line models of glioblastoma, U87-MG and U251-MG, and an NF1-deficient Neurofibromatosis type 1-associated MPNST cell line sNF96.2. […]

sequestosome-1 (p62) = test: Immunofluorescence staining for p62; assay type: cell-based, human; settings: U87-MG, 24 h; 2 μM Y102, 50 μM HCQ; HCQ and Y102 compared with each other
Experimental: U87-MG cells were plated at a concentration of 50,000 cells/well onto precoated poly-D-lysine (PDL) coverslips (Neuvitro) in 24-well plates (Falcon) and allowed to adhere overnight. Medium was removed and replaced with treatment-laced media normalized to DMSO, and cells were treated for the indicated timepoints. At the time of collection, cells were washed with PBS and fixed with 4% paraformaldehyde without methanol (EMS) or 100% methanol (Fischer). Coverslips were washed with Tween20-containing PBS (PBST; Fischer). Following permeabilization with 0.5% Triton X-100 in PBS (Fischer), coverslips were blocked for 1 h at room temperature in IF Buffer (0.05% azide, 0.2% Triton X-100, 2% Normal Goat Serum or, for 8-OHG, Normal Donkey Serum). The following primary antibodies were used for 1 hour at room temperature unless specified: AlexaFluor 488 pre-conjugated anti-γ-H2AX (N1-431) mouse monoclonal (30 minutes; BD Biosciences), anti-cleaved caspase 3 (Asp175) rabbit polyclonal (Cell Signaling), anti-SQSTM1/p62 (D-3) mouse monoclonal (Santa Cruz), anti-8-Hydroxyguanosine goat polyclonal (1:200; Millipore), anti-LAMP1 (D4O1S) mouse monoclonal (O/N at 4° C.; Cell Signaling), anti-BNIP3L/Nix (D4R4B) rabbit monoclonal (O/N at 4° C.; Cell Signaling), anti-FLAG (M2) mouse monoclonal (2 hours at 37° C.; Sigma-Aldrich). […]

mitochondria = test: MitoTracker Red CMXRos staining of the mitochondrial network; assay type: cell-based, human; settings: U87-MG, 24 h; 2 μM Y102, 50 μM HCQ
Experimental: For MitoTracker Red CMXRos staining, 30 minutes prior to collection medium was removed and replaced with medium containing MitoTracker Red CMXRos at a final concentration of 100 nM (Molecular Probes). Following staining, cells were washed with PBS and fixed with 4% paraformaldehyde without methanol. Cells were washed with PBST, then permeabilized with 0.5% Triton X-100 in PBS. When co-staining with another marker, the staining procedure continued with the blocking step; otherwise, cells were stained with 0.33 μg/mL DAPI in PBS and mounted onto slides in ProLong Gold (Life Technologies).

U87-MG cells = test: β-Galactosidase senescence assay; assay type: cell-based, human; settings: 2 μM, 72 h
Experimental: U87-MG cells were plated at 100,000 cells/well and allowed to adhere overnight. Medium was removed and replaced with medium containing DMSO, 2 μM Y102, or 100 nM Doxorubicin for a total of 72 hours. Cells were collected and stained for β-galactosidase using the Senescence β-Galactosidase Staining Kit (Cell Signaling). 100 cells were counted per condition; graph represents results from triplicate experiments.

Cn1cnnc1S/C=C/C(=O)c1ccc(F)cc1 [Y102]
effect on growth of erg6Δira2Δ yeast (OD600) (erg6Δira2Δ yeast): inhibitory effect | p62 expression compared to DMSO (immunofluorescence) (sequestosome-1 (p62)): increased | mitochondrial phenotype (perinuclear clustering) (mitochondria): perinuclear clustering of the mitochondria | senescence (senescence-associated β-galactosidase) (U87-MG cells): no indication
